In patent US20250188110A1, “SPECIFIC SMALL MOLECULE INHIBITORS THAT BLOCK KMT9 METHYLTRANSFERASE ACTIVITY AND FUNCTION” (ALBERT-LUDWIGS-UNIVERSITÄT FREIBURG, priority 2021, published 2025):
pIC50, pKd: −log10 of the molar value.

Key:
[1] = target: T1, KMT9 (Homo sapiens, UniProt Q9Y5N5); assay: Microscale thermophoresis (MST) KMT9 binding; conditions: microscale thermophoresis, His-tag labelled KMT9 (20 nM); read-out: MST
T1 sequence (Q9Y5N5 1-214): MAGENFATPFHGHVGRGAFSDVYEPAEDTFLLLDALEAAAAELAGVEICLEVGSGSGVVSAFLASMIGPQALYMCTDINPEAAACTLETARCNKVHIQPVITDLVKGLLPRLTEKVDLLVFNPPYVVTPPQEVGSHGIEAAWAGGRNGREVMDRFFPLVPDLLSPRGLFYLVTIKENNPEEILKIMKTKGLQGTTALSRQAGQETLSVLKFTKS
T1 sequence (Q9UI30 1-120 isoform Q9UI30-2 partner): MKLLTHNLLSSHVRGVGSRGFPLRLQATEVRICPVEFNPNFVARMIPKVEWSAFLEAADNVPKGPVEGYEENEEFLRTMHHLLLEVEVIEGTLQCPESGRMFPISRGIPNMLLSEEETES
Outline: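 Kd from microscale thermophoresis: compound series against 20 nM His-KMT9 labelled via RED-Tris-NTA, buffer 25 mM HEPES (pH 7.5)/100 mM NaCl/1 mM DTT/0.05% Tween, 40% MST power, 100% LED. Reported as classes: A ≤10 nM, B >10–100 nM, C >100–1000 nM, D >1000 nM.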

[2] = target: T1, KMT9; assay: KMT9 thermal shift assay (SyproOrange); format: binding; conditions: ΔTm; 500 µM compound, 2 μM KMT9, 5X SO; read-out: Thermal shift
Outline: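 ΔTm versus DMSO-only control is reported in bins (>20 K, 15–20 K, 10–15 K, ≤10 K), using Tm from Boltzmann sigmoidal fits of SyproOrange melt curves. KMT9 with compound in pH 8.5 BTP buffer containing MgCl2 and DTT was preincubated at 25° C, then ramped 1° C per 15 s up to 95° C.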

[3] = target: T1, KMT9; assay: KMT9 methyltransferase inhibition assay, 3H-SAM scintillation (entries 1-154); format: biochemical; conditions: entries 1-154: 3H-SAM assay, 25 nM KMT9, 5 μM ETF1
Outline: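 Tritium transfer from SAM (0.3 μM 3H-SAM, 0.7 μM unlabelled, final) to 5 μM ETF1 fragment by 25 nM KMT9 was measured after 2 h at 30° C, pH 8.5. Precipitated peptide was collected on filters and scintillation counted; IC50 came from a four-parameter fit of inhibition normalised to controls.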

Row | Compound | pKd [1] | ΔTm at 500 µM [2] [°C] | pIC50 [3]
1 | N#Cc1cn([C@@H]2C[C@H](CNCCCNCCc3ccccc3)[C@@H](O)[C@H]2O)c2ncnc(N)c12 [483 (357), 4-Amino-7-((1R,2S,3R,4R)-2,3-dihydroxy-4-(((3-(phenethylamino)propyl)amino)methyl)cyclopentyl)-7H-pyrrolo[2,3-d]pyrimidine-5-carbonitrile] | 6.00 to 7.00 | 10 to 15 | 5.00 to 6.00
2 | Nc1ncnc2c1c(Br)cn2[C@@H]1C[C@H](CN2CC(CNCCc3ccccc3)C2)[C@@H](O)[C@H]1O [484 (358), (1R,2S,3R,5R)-3-(4-Amino-5-bromo-7H-pyrrolo[2,3-d]pyrimidin-7-yl)-5-((3-((phenethylamino)methyl)azetidin-1-yl)methyl) cyclopentane-1,2-diol] | 7.00 to 8.00 | 15 to 20 | 6.00 to 7.00
3 | C=Cc1cn([C@@H]2C[C@H](CN3CC(CNCCc4ccc(F)cc4)C3)[C@@H](O)[C@H]2O)c2ncnc(N)c12 [485 (359), (1R,2S,3R,5R)-3-(4-Amino-5-vinyl-7H-pyrrolo[2,3-d]pyrimidin-7-yl)-5-((3-(((4-fluorophenethyl)amino)methyl)azetidin-1-yl)methyl) cyclopentane-1,2-diol] | 7.00 to 8.00 | 15 to 20 | 5.00 to 6.00
4 | Nc1ncnc2c1c(-c1nccs1)cn2[C@@H]1C[C@H](C2CCNCC2)[C@@H](O)[C@H]1O [487 (360)] | 7.00 to 8.00 | 15 to 20 | 5.00 to 6.00
5 | Nc1ncnc2c1ncn2[C@@H]1O[C@H](C(=O)NCCCNC(=O)Nc2ccccc2)[C@@H](O)[C@H]1O [684 (202), (2S,3S,4R,5R)-5-(6-amino-9H-purin-9-yl)-3,4-dihydroxy-N-(3-(3-phenylureido)propyl) tetrahydrofuran-2-carboxamide] | < 6.00 | ≤ 10 | < 5.00
6 | CNc1ncnc2c1ccn2[C@@H]1C[C@H](COCC(=O)NCCc2ccccc2)[C@@H](O)[C@H]1O [689 (298), 2-(((1R,2R,3S,4R)-2,3-Dihydroxy-4-(4-(methylamino)-7H-pyrrolo[2,3-d]pyrimidin-7-yl)cyclopentyl)methoxy)-N-phenethylacetamide] | < 6.00 | ≤ 10 | < 5.00
7 | Nc1ncnc2c1c(-c1nccs1)cn2[C@@H]1C[C@H](CC2CNC2)[C@@H](O)[C@H]1O [Compound 486, (1R,2S,3R,5S)-3-(4-amino-5-(thiazol-2-yl)-7H-pyrrolo[2,3-d]pyrimidin-7-yl)-5-(azetidin-3-ylmethyl) cyclopentane-1,2-diol] | < 6.00 | ≤ 10 | < 5.00
8 | Nc1ncnc2c1c(-c1nc(Cc3ccccc3)cs1)cn2[C@@H]1C[C@H](C2CCNCC2)[C@@H](O)[C@H]1O [Compound 488, (1R,2S,3R,5R)-3-(4-amino-5-(4-benzylthiazol-2-yl)-7H-pyrrolo[2,3-d]pyrimidin-7-yl)-5-(piperidin-4-yl)cyclopentane-1,2-diol] | 7.00 to 8.00 | 10 to 15 | 5.00 to 6.00
9 | Nc1ncnc2c1c(-c1ccn(Cc3ccccc3)n1)cn2[C@@H]1C[C@H](C2CCNCC2)[C@@H](O)[C@H]1O [Compound 489, (1R,2S,3R,5R)-3-(4-amino-5-(1-benzyl-1H-pyrazol-3-yl)-7H-pyrrolo[2,3-d]pyrimidin-7-yl)-5-(piperidin-4-yl)cyclopentane-1,2-diol] | 7.00 to 8.00 | 15 to 20 | 5.00 to 6.00
10 | O[C@@H]1[C@H](O)[C@@H](C2CCNCC2)C[C@H]1n1cc2c3c(ncnc31)NCCC2 [Compound 490, (1S,2R,3R,5R)-3-(piperidin-4-yl)-5-(6,7,8,9-tetrahydro-2H-2,3,5,6-tetraazabenzo[cd]azulen-2-yl)cyclopentane-1,2-diol] | 6.00 to 7.00 | 10 to 15 | 5.00 to 6.00
11 | Nc1ncnc2c1c(-c1nccs1)cn2[C@@H]1C[C@H](CN(CCCNCCc2ccc(F)cc2)c2cn[nH]c2)[C@@H](O)[C@H]1O [Compound 599, (1R,2S,3R,5R)-3-[4-Amino-5-(1,3-thiazol-2-yl)pyrrolo[2,3-d]pyrimidin-7-yl]-5-{[(3-{[2-(4-fluorophenyl)ethyl]amino}propyl)(1H-pyrazol-4-yl)amino]methyl}cyclopentane-1,2-diol] | ≥ 8.00 | 15 to 20 | > 7.00
12 | CS(=O)(=O)n1ccc(-c2cn([C@@H]3C[C@H](CNCCCNCCc4ccccc4)[C@@H](O)[C@H]3O)c3ncnc(N)c23)n1 [Compound 600, (1R,2S,3R,5R)-3-(4-Amino-5-(1-(methylsulfonyl)-1H-pyrazol-3-yl)-7H-pyrrolo[2,3-d]pyrimidin-7-yl)-5-(((3-(phenethylamino)propyl)amino)methyl)cyclopentane-1,2-diol] | ≥ 8.00 | 15 to 20 | > 7.00
13 | Nc1ncnc2c1c(-c1ncns1)cn2[C@@H]1C[C@H](CNCCCNCCc2ccccc2)[C@@H](O)[C@H]1O [Compound 601, (1R,2S,3R,5R)-3-(4-amino-5-(1,2,4-thiadiazol-5-yl)-7H-pyrrolo[2,3-d]pyrimidin-7-yl)-5-(((3-(phenethylamino)propyl)amino)methyl)cyclopentane-1,2-diol] | 6.00 to 7.00 | 10 to 15 | 5.00 to 6.00
14 | Nc1ncnc2c1c(-c1nccs1)cn2[C@@H]1C[C@H](CNCCCNCCc2ccc(F)cc2)[C@@H](O)[C@H]1O [Compound 602, (1R,2S,3R,5R)-3-[4-Amino-5-(1,3-thiazol-2-yl)pyrrolo[2,3-d]pyrimidin-7-yl]-5-{[(3-{[2-(4-fluorophenyl)ethyl]amino}propyl)amino]methyl}cyclopentane-1,2-diol] | 7.00 to 8.00 | 15 to 20 | 6.00 to 7.00
15 | Nc1ncnc2c1ccn2[C@@H]1C[C@H](CN(CCCNCCc2ccc(F)cc2)c2c[nH]nc2Br)[C@@H](O)[C@H]1O [Compound 603, (1R,2S,3R,5R)-3-{4-Aminopyrrolo[2,3-d]pyrimidin-7-yl}-5-{[(3-bromo-2H-pyrazol-4-yl)(3-{[2-(4-fluorophenyl)ethyl]amino}propyl)amino]methyl}cyclopentane-1,2-diol] | ≥ 8.00 | 15 to 20 | 6.00 to 7.00
16 | Nc1ncnc2c1c(-c1ccn(S(=O)(=O)c3ccccc3)n1)cn2[C@@H]1C[C@H](CNCCCNCCc2ccccc2)[C@@H](O)[C@H]1O [Compound 604, (1R,2S,3R,5R)-3-(4-Amino-5-(1-(phenylsulfonyl)-1H-pyrazol-3-yl)-7H-pyrrolo[2,3-d]pyrimidin-7-yl)-5-(((3-(phenethylamino)propyl)amino)methyl)cyclopentane-1,2-diol] | ≥ 8.00 | 15 to 20 | > 7.00
17 | Nc1ncnc2c1c(-c1nc(Cc3ccccc3)cs1)cn2[C@@H]1C[C@H](CNCCCNCCc2ccccc2)[C@@H](O)[C@H]1O [Compound 605, (1R,2S,3R,5R)-3-(4-Amino-5-(4-benzylthiazol-2-yl)-7H-pyrrolo[2,3-d]pyrimidin-7-yl)-5-(((3-(phenethylamino)propyl)amino)methyl)cyclopentane-1,2-diol] | 7.00 to 8.00 | 15 to 20 | 6.00 to 7.00
18 | CNc1ncnc2c1ccn2[C@@H]1C[C@H](CN(CCCN)c2cn[nH]c2Br)[C@@H](O)[C@H]1O [Compound 606, (1S,2R,3R,5R)-3-{[(3-Aminopropyl)(3-bromo-2H-pyrazol-4-yl)amino]methyl}-5-[4-(methylamino)pyrrolo[2,3-d]pyrimidin-7-yl]cyclopentane-1,2-diol] | < 6.00 | ≤ 10 | < 5.00
